Measured values taken from patent publication US11254700B2, “GSK-3β inhibitors and use thereof in methods of treatment” (UNIVERSITY OF HAWAII, priority 2017, dated 2022).
pIC50: −log10 of the molar value. Entries after “also recorded” stand apart in the source; their conditions may differ.

Key:
[1] = tested on: IgG anti-Aβ42; assay: Anti-Aβ immunoglobulin (IgG) in serum by ELISA; type: in vivo, mouse; conditions: APP/PS1 mice, 60-day intragastric, vs model group
Procedure: The backgrounds of all mice (APP/PS1 dual transgenic mice and wild-type mice with littermates) were C57/B6. Transgenic mice were randomly divided into three groups (n=20 for each group), and wild-type mice were used as controls (n=20). The control group and one group of transgenic mice (model group) were given sterilized ultrapure water, and the other two groups of transgenic mice received low- and high-dose Isoorientin (20 and 50 mg/kg, respectively) via intragastric administration for 60 days. Throughout the study-period, animals were housed in a controlled environment (temperature, 22° C.; humidity, 50-60%, 12-hour light/12-hour dark schedules), with free access to rodent chow and water. After a Morris water maze test, mice were perfused with cold phosphate-buffered saline (PBS), brain tissues were dissected and kept frozen at −80° C. until further analysis. […] Blood was collected from mice. […] The anti-Aβ immunoglobulin (IgG) was measured using an enzyme-linked immunosorbent assay (ELISA) kit according to the manufacturer's protocol (see also, Song, et al. (2017) PLoS One 12(1):e0169509). […] The optical densities at 450 nm were analyzed using a microreader (TECAN, Switzerland) and linear regression was confirmed by ab126468, polyclonal anti-amyloid fibril antibody, as positive internal control. […]

[2] = tested on: APP/PS1 transgenic mice; assay: Morris water maze test; type: in vivo, mouse
Procedure: The backgrounds of all mice (APP/PS1 dual transgenic mice and wild-type mice with littermates) were C57/B6. Transgenic mice were randomly divided into three groups (n=20 for each group), and wild-type mice were used as controls (n=20). […] Throughout the study-period, animals were housed in a controlled environment (temperature, 22° C.; humidity, 50-60%, 12-hour light/12-hour dark schedules), with free access to rodent chow and water. After a Morris water maze test, mice were perfused with cold phosphate-buffered saline (PBS), brain tissues were dissected and kept frozen at −80° C. until further analysis. […] Isoorientin was dissolved in sterilized, ultrapure water, sonicated for 20 minutes at a concentration of 5 mg/ml and 2.5 mg/ml, and stored at 4° C. Isoorientin was administered by oral gavage. The required amount of solution was returned to room temperature before intragastric administration. […] The maze was composed of a circular pool (120 cm in diameter) filled with water (22±2° C.) to a height of 30 cm. […] Mice were given day of adaptive training followed by trials on six consecutive days. Each trial started by gently placing the mouse into the water with its head toward the pool wall of any of the three quadrants without the platform. If an animal found the platform within 60 seconds, it was left on the platform for 20 seconds. […] On the last day of Morris water maze test, the platform was removed and the number of times that the mice crossed the location of the original platform was quantified. Between trials, all mice were placed back in their home cages using a spoon-net to avoid direct contact with the experimenter. All trials were tracked automatically by a digital tracking system (Feidi Biological Technology) assessing path length, swimming speed, and latency to escape from the water.

[3] = target: GSK-3β (Homo sapiens, UniProt P49841); assay: Kinase luminescent assay (ADP-Glo), GSK-3β inhibition; type: biochemical; conditions: 25 μM ATP, 1 hour, room temperature; mean of quadruplicate of two experiments; read-out: IC50 against GSK-3β
Sequence of GSK-3β (P49841 whole entry): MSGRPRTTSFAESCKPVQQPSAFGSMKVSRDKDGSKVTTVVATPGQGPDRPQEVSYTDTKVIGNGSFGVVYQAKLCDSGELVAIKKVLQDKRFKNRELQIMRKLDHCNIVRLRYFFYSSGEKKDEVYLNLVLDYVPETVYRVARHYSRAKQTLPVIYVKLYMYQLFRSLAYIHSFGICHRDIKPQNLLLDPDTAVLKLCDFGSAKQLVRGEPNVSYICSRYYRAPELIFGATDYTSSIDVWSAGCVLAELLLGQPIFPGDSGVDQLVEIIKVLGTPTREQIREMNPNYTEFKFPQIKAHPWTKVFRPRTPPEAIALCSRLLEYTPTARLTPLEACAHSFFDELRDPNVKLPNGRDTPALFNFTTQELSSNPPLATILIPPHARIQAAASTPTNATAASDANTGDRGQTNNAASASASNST
Procedure: Kinase Luminescent Assay.
Kinase inhibition was assessed with the ADP-Glo Kinase Assay. […] The reaction mixture was incubated for 1 hour at room temperature followed by the addition of the ADP-Glo′ reagents according to the manufacturer's protocol. The kinase inhibitor staurosporine was used at 1 μM as a reference control. Each data point was collected in quadruplicate of two independent experiments.

[4] = tested on: Aβ42; assay: Brain Aβ42 by ELISA; type: in vivo, mouse; conditions: vs model group
Procedure: The backgrounds of all mice (APP/PS1 dual transgenic mice and wild-type mice with littermates) were C57/B6. Transgenic mice were randomly divided into three groups (n=20 for each group), and wild-type mice were used as controls (n=20). The control group and one group of transgenic mice (model group) were given sterilized ultrapure water, and the other two groups of transgenic mice received low- and high-dose Isoorientin (20 and 50 mg/kg, respectively) via intragastric administration for 60 days. Throughout the study-period, animals were housed in a controlled environment (temperature, 22° C.; humidity, 50-60%, 12-hour light/12-hour dark schedules), with free access to rodent chow and water. […] For quantitation purposes, a highly specific and sensitive mouse Aβ42 ELISA kit was used (Invitrogen Corporation, Carlsbad, Calif.). Brain tissue protein was extracted by homogenizing about 100 mg brain tissue with an 8-fold mass quantity of cold 5 M guanidine-HCl and 50 mM Tris (pH 8.0), and incubating the homogenate at room temperature for 3.5 hours. […] Soluble and insoluble brain samples including cortex and hippocampus were analyzed for Aβ levels using the mouse Aβ42 ELISA kit, according to the manufacturer's instructions. […] The obtained values were corrected for the wet weight of each brain sample and expressed as μg/mg brain.

**Q.** How did the “IgG anti-Aβ42 in serum” value [1] turn out when `O=c1cc(-c2ccc(O)c(O)c2)oc2cc(O)c([C@@H]3O[C@H](CO)[C@@H](O)[C@H](O)[C@H]3O)c(O)c12` [Compound 1, isoorientin] was run?
**A.** decreased; also recorded: reduced

**Q.** And the platform cross frequencies ([2]; all doses, vs untreated APP/PS1)?
**A.** significantly increased

**Q.** And the escape latency ([2]; intragastric, 60 days, all doses, vs untreated APP/PS1)?
**A.** significantly reduced the escape latency

**Q.** And the cognitive deficit ([2]; oral, 25-mg/kg)?
**A.** significant alleviation of cognitive deficit

**Q.** And the pIC50 [3]?
**A.** 3.73

**Q.** What about the “Aβ42 in brain (cortex+hippocampus)” value ([4]; high-dose group 50 mg/kg, oral, 60 days) of the same compound?
**A.** significantly lower; also recorded: significant decrease

**Q.** What about the “Aβ42 in brain (cortex+hippocampus)” value ([4]; low-dose group) of the same compound?
**A.** no statistically significant difference
